Data reported in article PMC3024946, “Hydroxyproline-containing collagen analogs trigger the release and activation of collagen-sequestered proMMP-2 by competition with prodomain-derived peptide P33-42” (Fibrogenesis & Tissue Repair, 2011).

How the values were obtained:
Parameters in all cases: species or system human
ProMMP-2 = assay: Solid-phase binding of [125I]-proMMP-2 to immobilized collagens/peptides (microwells); settings: for Binding of [125I]-MMPs: ProMMP-2, 2 ng/well, coated wells, 4°C, 2 h, residual radioactivity, mean ± SD, at least five experiments in triplicate
Experimental: (§1) Human recombinant proMMPs and in vitro activated MMPs were obtained from Invitek and were labeled with the [^125I]-Bolton-Hunter reagent according to the manufacturer's instructions (PerkinElmer, Rodgau, Germany) before the buffer was exchanged for phosphate-buffered saline (PBS) with 0.05% (vol/vol) Tween 20 by gel filtration as described previously. Specific radioactivity for [^125I]-MMPs was 3-9 × 10^4 cpm/ng. Precipitation with 10% (wt/vol) trichloroacetic acid and 200 μg of BSA recovered 96% to 100% of protein-bound radioactivity. Aliquots of labeled MMPs were frozen and stored at -80°C. The activity and integrity were checked by substrate gel zymography using SDS-PAGE and autoradiography with overnight exposure to Biomax MS film (Kodak, Stuttgart, Germany) (Figure 2A).
(§2) Native human CI, CIII and CVI were purified from skin tissue and placenta. The CI single chains α1(I) and α2(I) were obtained and modified as described previously. To prepare defined fragments, 2 mg of α1(I) were dissolved in 1 ml of 70% (vol/vol) formic acid at room temperature, the tubes were flushed with nitrogen for 10 min, and then 2 mg of CB were added. After incubation for 4 h at 37°C, free CB was neutralized and the samples were lyophilized. The peptides CB3, CB6, CB7 and CB8 were separated from the reaction mixture by gel filtration followed by ion-exchange chromatography. The resulting peptides were characterized by amino acid analysis and SDS-PAGE [45, 46]. The CB peptides had the following melting temperatures: CB3, 23.9°C; CB6, 26.7°C; CB7, 28.1°C; and CB8, 28.0°C [31].
(§3) The following collagen analogs and control peptides were synthesized as described previously: (GPO)10, H-Gly-Cys-Hyp-(Gly-Pro-Hyp)10-Gly-Cys-Hyp-Gly-NH2; (GPP)10, H-Gly-Cys-Pro-(Gly-Pro-Pro)10-Gly-Cys-Pro-Gly-NH2; and GAP, H-Gly-Ala-Cys-(Gly-Ala-Pro)5-Gly-Phe-Hyp-Gly-Glu-Arg-(Gly-Ala-Pro)5-NH2. Peptides (POG)10, (PPG)10 and (POG)5 were purchased from Peptide International (Louisville, KY, USA). Spontaneous triple-helix assembly was approved by polarimetry over a 10-cm path length at 1°C/min in 10 mM phosphate buffer, pH 7.4. At 5 mg/ml, midpoints of melting curves occurred at 82.3 ± 1.4°C for (GPO)10 and at 45.8 ± 0.8°C for (GPP)10. […] Graphs were calculated from the primary data using a custom fitting program written by D.A. Slatter (Department of Biochemistry, University of Cambridge, Cambridge, UK [48]) to model different possible transitions. All collagens, CI derivatives and peptides were stored in stock solutions of 2 mg/ml in 150 mM acetic acid at -20°C.
(§4) ProMMP-2 and proMMP-9 or actMMP-2 and actMMP-9 were bound to nitrocellulose and polystyrene-immobilized native collagens, CI chains, CB peptides or structural analogs. Serial dilutions of collagens or CI derivatives in 150 mM acetic acid were dotted at 3 × 3 μl to a nitrocellulose membrane with high protein-binding capacity (GE Healthcare, Munich, Germany). Air-dried membranes were blocked with PBS and 0.3% (vol/vol) Tween 20 overnight at 4°C, washed three times, and incubated with 1 ng/ml [^125I]-pro- and actMMP-2 and pro- and actMMP-9 in PBS and 0.3% (vol/vol) Tween 20 for 2 h at room temperature. Membranes were washed again and air-dried, and bound MMP was monitored by autoradiography. In parallel, polystyrene microtiter plates (Dynex, Chantilly, VA, USA) were coated with collagen proteins and peptides. Here 2 μg/well or 200 ng/well proteins and peptides or BSA as control were immobilized in 100 μl of 50 mM ammonium bicarbonate buffer, pH 9.6, by overnight incubation at 4°C. Immobilization efficacies were 20% to 45% of total proteins. Wells were washed three times with PBS, and nonspecific binding sites were blocked with PBS and 0.05% (vol/vol) Tween 20 for 1 h at room temperature. All incubation steps were performed with 2 ng of [^125I]-MMPs at 4°C for 2 h. […]

ProMMP-9 = assay: Solid-phase binding of [125I]-proMMP-9 to immobilized collagens/peptides (microwells); settings: for Binding of [125I]-MMPs: ProMMP-9, 2 ng/well, coated wells, 4°C, 2 h, residual radioactivity, mean ± SD, at least five experiments in triplicate
Experimental: as §1, §2, §3, §4

ActMMP-2 = assay: Solid-phase binding of [125I]-actMMP-2 to immobilized collagens/peptides (microwells); settings: ActMMP-2, 2 ng/well; coated wells; 4°C, 2 h; residual radioactivity; mean ± SD, at least five experiments in triplicate
Experimental: as §1, §2, §3, §4

ActMMP-9 = assay: Solid-phase binding of [125I]-actMMP-9 to immobilized collagens/peptides (microwells); settings: ActMMP-9, 2 ng/well; coated wells; 4°C, 2 h; residual radioactivity; mean ± SD, at least five experiments in triplicate
Experimental: as §1, §2, §3, §4

Substance | Binding of [125I]-MMPs (ProMMP-2) | interaction with control peptides (ProMMP-2; pro- and act-forms of MMP-2 and MMP-9, in words) | Binding of [125I]-MMPs (ProMMP-9) | Binding of [125I]-MMPs (ActMMP-2) | Binding of [125I]-MMPs (ActMMP-9) | binding of proMMP vs respective actMMP (ProMMP-2; proMMP-2 vs actMMP-2 (stated jointly for MMP-2 and MMP-9)) | binding of proMMP vs respective actMMP (ProMMP-9; proMMP-9 vs actMMP-9 (stated jointly for MMP-2 and MMP-9))
H-Gly-Cys-Pro-(Gly-Pro-Pro)10-Gly-Cys-Pro-Gly-NH2 [(GPP)10, Triple-helical Gly-Pro-Pro (GPP)10, devoid of Hyp] | 3.6 ± 2.0 % of maximum control | only marginal interactions | 4.9 ± 0.7 % of maximum control | 2.1 ± 0.7 % of maximum control | 0.9 ± 0.4 % of maximum control |  | 
H-Gly-Cys-Hyp-(Gly-Pro-Hyp)10-Gly-Cys-Hyp-Gly-NH2 [(GPO)10, triple-helical Hyp-containing collagen analog] | 13.0 ± 3.5 % of maximum control |  | 36.1 ± 1.7 % of maximum control | 6.2 ± 3.1 % of maximum control | 5.4 ± 0.6 % of maximum control | two- to sevenfold more strongly | two- to sevenfold more strongly
